Each compound was assayed on MV-4-11 cells (assay: MV-4-11 cell proliferation assay (ATPlite)). Conditions: 3 days, read-out: Cell based (IC50 μM) MV-4-11 (Flt-3).
Protocol: Compounds are assessed in a variety of cell based assays. For example BCR-FMS/BaF3, BCR-KIT/BaF3, M-NFS-60, M-07e, and BAC1.2F5 cell proliferation assays are used to assess inhibitory activity of Fms or Kit and MV-4-11 cell proliferation assay is used to assess inhibitory activity in Flt-3. Reagent and assay conditions are as follows: • BCR-FMS/BaF3 and BCR-KIT/BaF3 cells: • Maintained in RPMI containing 10% FBS, 1% PenStrep, 1% NEAA, and 1% L-Glutamine, supplemented with 1 mg/mL G418 and 5% WEHI-CM (or recombinant murine IL-3). • Confluent cells are split 1:50 to 1:100 every 3-4 days. • M-NFS-60 cells (ATCC #CRL-1838): • Maintained in RPMI containing 10% FBS, 1% Hepes, 1% NaPyruvate, and 0.45% Glucose, supplemented with 62 ng/mL murine M-CSF. • Confluent cells are split 1:20 every 3-4 days. • M-07e cells (DSMZ #ACC 104): • Maintained in IMDM containing 10% FBS, supplemented with either 200 ng/mL human SCF or […] SCF (R&D Systems 255-SC). • Confluent cells are split 1:5 to 1:10 every 3-4 days. • BAC1.2F5 cells: • Maintained in Alpha-MEM containing 10% Newborn Calf Serum (Invitrogen #26010-074) supplemented with 36 ng/mL murine M-CSF. • Confluent cells are split 1:4 every 3-4 days. • MV-4-11 cells: • Maintained in Iscove's Modified Dulbecco's Medium containing 10% FBS. • Confluent cells are split 1:4 every 3-4 days. On day 1, cells are counted, then centrifuged in a conical tube for 5 minutes at 1000 rpm. The supernatant is removed and cells are re-suspended as follows: • BCR-FMS/BaF3 and BCR-KIT/BaF3: resuspend in growth media+1 mg/mL G418 (without WEHI/IL-3) to 2×10^5 cells/mL. • M-NFS-60: resuspend in growth media +62 ng/mL murine M-CSF to 5×10^5 cells/mL. • M-07e: resuspend in growth media +200 ng/mL human SCF to 5×10^5 cells/mL. • BAC1.2F5: resuspend in growth media +36 ng/mL murine M-CSF to 1.4×10^5 cells/mL. • MV-4-11: resuspend in growth media +10% FBS to 5×10^5 cells/mL. The cells are plated (50 μL) in each well of a 96-well dish (Corning 3610) and incubated at 37° C. in 5% CO2 overnight, cells plated to a final concentration of cells as follows: • BCR-FMS/BaF3 and BCR-KIT/BaF3: 10,000 cells per well. • M-NFS-60: 25,000 cells per well. • M-07e: 25,000 cells per well. • BAC1.2F5: 7,000 cells per well. • MV-4-11: 25,000 cells per well. On day 2, compound at a maximum concentration of 5 mM is serially diluted 1:3 for a total of 8 point titration with DMSO as a control. A 1 μL aliquot of each dilution point is added to 249 μL growth media and 50 μL is added to a well containing cells, providing 10 μM compound for the maximum concentration point. The cells are incubated for 3 days at 37° C. in 5% CO2. On day 5, ATPlite 1 step Luminescence Assay System (Perkin Elmer #6016739) is brought to room temperature along with the cell cultures. ATPlite is added to each well as follows: • BCR-FMS/BaF3 and BCR-KIT/BaF3: 25 μL per well. • M-NFS-60: 25 μL per well. • M-07c: 40 μL per well. • BAC1.2F5: 50 μL per well. • MV-4-11: 40 μL per well. The cells are incubated at room temperature for 10 minutes, then luminescence is read on Safire reader. The measured luminescence correlates directly with cell number, such that the reading as a function of compound concentration is used to determine the IC50 value.

With `Clc1cnc2[nH]cc(Cc3ccc(NCc4ccc(Cl)nc4)nc3)c2c1` [Compound P-2003] the IC50 was over 0.1 µM.

Same assay, conditions: Homo sapiens, MV4-11, 72 h, 3 days, read-out: Cell based (IC50 μM) MV-4-11 (Flt-3)

`COc1ccc(CNc2ccc(Cc3c[nH]c4ncc(C)cc34)c(F)n2)cn1` [Compound P-2029, [6-Fluoro-5-(5-methyl-1H-pyrrolo[2,3-b]pyridin-3-ylmethyl)-pyridin-2-yl]-(6-methoxy-pyridin-3-ylmethyl)-amine] and `COc1cnc2[nH]cc(Cc3ccc(NCc4ccc(OC)nc4)nc3F)c2c1` [Compound P-2030, [6-Fluoro-5-(5-methoxy-1H-pyrrolo[2,3-b]pyridin-3-ylmethyl)-pyridin-2-yl]-(6-methoxy-pyridin-3-ylmethyl)-amine] cannot be ordered by IC50: under 0.1 µM for the first, under 0.1 µM for the second.

Compared with `Cc1cnc2[nH]cc(Cc3ccc(NCc4ccc(C(F)(F)F)nc4)nc3F)c2c1` [Compound P-2031, [6-Fluoro-5-(5-methyl-1H-pyrrolo[2,3-b]pyridin-3-ylmethyl)-pyridin-2-yl]-(6-trifluoromethyl-pyridin-3-ylmethyl)-amine], `COc1ncc(CNc2ccc(Cc3c[nH]c4ncc(Cl)cc34)c(F)n2)cc1F` [Compound P-2165, [5-(5-Chloro-1H-pyrrolo[2,3-b]pyridin-3-ylmethyl)-6-fluoro-pyridin-2-yl]-(5-fluoro-6-methoxy-pyridin-3-ylmethyl)-amine] is higher in IC50: under 0.1 µM for the first, over 0.1 µM for the second.

First: COc1cnc2[nH]cc(Cc3ccc(NCc4ccc(Cl)cc4)nc3F)c2c1 [Compound P-2032, (4-Chloro-benzyl)-[6-fluoro-5-(5-methoxy-1H-pyrrolo[2,3-b]pyridin-3-ylmethyl)-pyridin-2-yl]-amine]
Second: COc1cnc2[nH]cc(Cc3ccc(NCc4ccccc4Cl)nc3F)c2c1 [Compound P-2034, (2-chloro-benzyl)-[6-fluoro-5-(5-methoxy-1H-pyrrolo[2,3-b]pyridin-3-ylmethyl)-pyridin-2-yl]-amine]
The IC50 of the first is lower: under 0.1 µM for the first, over 0.1 µM for the second. The first is the more potent here.

First: COc1ccnc2[nH]cc(Cc3ccc(NCc4ccc(Cl)cc4)nc3F)c12 [Compound P-2037, (4-Chloro-benzyl)-[6-fluoro-5-(4-methoxy-1H-pyrrolo[2,3-b]pyridin-3-ylmethyl)-pyridin-2-yl]-amine]
Second: Fc1nc(NCc2ccc(Cl)cn2)ccc1Cc1c[nH]c2ncccc12 [Compound P-2044, (5-Chloro-pyridin-2-ylmethyl)-[6-fluoro-5-(1H-pyrrolo[2,3-b]pyridin-3-ylmethyl)-pyridin-2-yl]-amine]
The IC50 of the first is higher: over 0.1 µM for the first, under 0.1 µM for the second.

`COc1ccc(CNc2ncc(Cc3c[nH]c4ncc(Cl)cc34)cn2)cn1` [Compound P-2038, [5-(5-Chloro-1H-pyrrolo[2,3-b]pyridin-3-ylmethyl)-pyrimidin-2-yl]-(6-methoxy-pyridin-3-ylmethyl)-amine] and `COc1ccc(CNc2ncc(Cc3c[nH]c4ncc(C)cc34)cn2)cn1` [Compound P-2057, (6-Methoxy-pyridin-3-ylmethyl)-[5-(5-methyl-1H-pyrrolo[2,3-b]pyridin-3-ylmethyl)-pyrimidin-2-yl]-amine] cannot be ordered by IC50: under 0.1 µM for the first, under 0.1 µM for the second.

From patent US9096593B2, “Compounds and methods for kinase modulation, and indications therefor” (Plexxikon Inc., priority 2009, dated 2015)
